Reference: DBAASP
In brackets after ≈: the same amount, converted by molar mass. Several values for one entry are separate records, joined by “and”; a condition that tells them apart may be missing. Identical values can stand only once. Each block holds one compound with its values, some of them ahead of it.

Experiments:
Assay in all cases: ≥ marks a high value that may be exact or a test limit, other limits are often not marked, values filed in µg/mL are converted to µM
[1] = tested on: Staphylococcus aureus 725
[2] = tested on: Enterococcus faecalis ATCC 29212
[3] = tested on: Saccharomyces cerevisiae BY4741
Escherichia coli 780 = tested on: Escherichia coli 780
[4] = tested on: Staphylococcus aureus RN4220
[5] = tested on: Staphylococcus aureus ATCC 25923
Bacillus subtilis 168 = tested on: Bacillus subtilis 168
[6] = tested on: Klebsiella pneumoniae ATCC 700603
[7] = tested on: Pseudomonas aeruginosa 2760
Escherichia coli 850 = tested on: Escherichia coli 850
Acinetobacter baumannii = tested on: Acinetobacter baumannii
[8] = tested on: Escherichia coli ATCC 25922
[9] = tested on: Bacillus subtilis ATCC 23857
[10] = tested on: Staphylococcus aureus 936
Candida albicans CA14 = tested on: Candida albicans CA14
Escherichia coli K-12 = tested on: Escherichia coli K-12
[11] = tested on: Acinetobacter baumannii ATCC 19606
[12] = tested on: Pseudomonas aeruginosa ATCC 27853
[13] = tested on: Cryptococcus neoformans IP960-67
[14] = tested on: Aspergillus fumigatus IP1025-70
[15] = tested on: Aspergillus niger IP218-53
[16] = tested on: Candida albicans IP884-65
[17] = tested on: Saccharomyces cerevisiae IP118079
[18] = tested on: Staphylococcus aureus IP76-25
[19] = tested on: Trichophyton simii IP1063-74
[20] = tested on: Aeromonas caviae IP67-16T
Escherichia coli IP76-24 = tested on: Escherichia coli IP76-24
[21] = tested on: Nocardia brasiliensis IP16-80
[22] = tested on: Enterococcus faecalis IP103214
Escherichia coli = tested on: Escherichia coli
Staphylococcus aureus = tested on: Staphylococcus aureus
Bacillus subtilis = tested on: Bacillus subtilis
Pseudomonas aeruginosa = tested on: Pseudomonas aeruginosa
Aeromonas hydrophila = tested on: Aeromonas hydrophila
Candida albicans = tested on: Candida albicans
Edwardsiella tarda = tested on: Edwardsiella tarda
Bacillus megaterium Bm11 = tested on: Bacillus megaterium Bm11
Escherichia coli ML-35 = tested on: Escherichia coli ML-35
[23] = tested on: Bacillus subtilis KCTC 3068
[24] = tested on: Staphylococcus epidermidis ATCC 12228
[25] = tested on: Salmonella enterica subsp. enterica serovar Typhimurium ATCC 14028
Enterococcus faecium = tested on: Enterococcus faecium
[26] = tested on: Escherichia coli O18:K1:H7 Bort
[27] = tested on: Staphylococcus epidermidis ATCC 35984
[28] = tested on: Pseudomonas aeruginosa KCTC 1637
Escherichia coli D21 = tested on: Escherichia coli D21
[29] = tested on: Staphylococcus epidermidis KCTC 1917
[30] = tested on: Salmonella typhimurium KCTC 1926
Cryptococcus neoformans = tested on: Cryptococcus neoformans
[31] = tested on: Escherichia coli KCTC 1682
[32] = tested on: Serratia marcescens ATCC 8100
[33] = tested on: Staphylococcus aureus KCTC 1621
Serratia marcescens = tested on: Serratia marcescens
[34] = tested on: Staphylococcus aureus Cowan 1
Streptococcus agalactiae = tested on: Streptococcus agalactiae
Escherichia coli W160-37 = tested on: Escherichia coli W160-37

MIC [1]: 7.33 µM (≈ 16 µg/mL)
MIC [2]: 14.7 µM (≈ 32 µg/mL)
MIC [3]: 8 µM (≈ 17.5 µg/mL)
MIC (Escherichia coli 780): 7.33 µM (≈ 16 µg/mL)
MIC [4]: 4 µM (≈ 8.73 µg/mL)
MIC [5]: 7.33 µM (≈ 16 µg/mL)
MIC (Bacillus subtilis 168): 10 µM (≈ 21.8 µg/mL)
MIC [6]: 14.7 µM (≈ 32 µg/mL)
MIC [7]: 7.33 µM (≈ 16 µg/mL)
MIC (Escherichia coli 850): 7.33 µM (≈ 16 µg/mL)
MIC (Acinetobacter baumannii): 3.67 µM (≈ 8 µg/mL)
MIC [8]: 7.33 µM (≈ 16 µg/mL)
MIC [9]: 3.67 µM (≈ 8 µg/mL)
MIC [10]: 7.33 µM (≈ 16 µg/mL)
MIC (Candida albicans CA14): 4 µM (≈ 8.73 µg/mL)
MIC (Escherichia coli K-12): 10 µM (≈ 21.8 µg/mL)
MIC [11]: 3.67 µM (≈ 8 µg/mL)
MIC [12]: 14.7 µM (≈ 32 µg/mL)
Structure (SMILES): CC[C@H](C)[C@H](NC(=O)[C@H](CCCCN)NC(=O)[C@H](CCCCN)NC(=O)[C@H](C)NC(=O)[C@H](CC(C)C)NC(=O)[C@H](C)NC(=O)[C@H](C)NC(=O)[C@H](CC(C)C)NC(=O)[C@H](C)NC(=O)[C@H](CCCCN)NC(=O)[C@H](CC(C)C)NC(=O)[C@H](CC(N)=O)NC(=O)[C@@H](NC(=O)[C@H](CCCCN)NC(=O)CNC(=O)[C@H](CC(C)C)NC(=O)[C@H](CC(C)C)NC(=O)[C@H](Cc1ccc(O)cc1)NC(=O)CNC(=O)[C@H](C)N)[C@@H](C)CC)C(=O)N[C@@H](CC(C)C)C(=O)O [AGYLLGKINLKALAALAKKIL]

MIC [13]: 25 µM (≈ 29.3 µg/mL)
MIC [14]: ≥ 150 µM
MIC [15]: ≥ 150 µM
MIC [16]: ≥ 150 µM
MIC [17]: ≥ 50 µM
MIC [18]: ≥ 150 µM
MIC [19]: ≥ 150 µM
MIC [20]: 7 µM (≈ 8.21 µg/mL)
MIC (Escherichia coli IP76-24): 14 µM (≈ 16.4 µg/mL)
MIC [21]: ≥ 150 µM
MIC [22]: 7 µM (≈ 8.21 µg/mL)
Structure (SMILES): CC[C@H](C)[C@H](NC(=O)CNC(=O)[C@H](CCCCN)NC(=O)[C@H](CC(C)C)NC(=O)[C@H](CCSC)NC(=O)[C@H](CC(N)=O)NC(=O)[C@H](CCCCN)NC(=O)[C@H](Cc1c[nH]c2ccccc12)NC(=O)[C@H](CC(C)C)NC(=O)[C@H](C)N)C(N)=O [ALWKNMLKGI]

MIC (Escherichia coli): 6.7 µM (≈ 16.9 µg/mL)
MIC (Staphylococcus aureus): 5 µM (≈ 12.6 µg/mL)
MIC (Bacillus subtilis): 3 µM (≈ 7.58 µg/mL)
MIC (Pseudomonas aeruginosa): 35 µM (≈ 88.4 µg/mL)
MIC (Aeromonas hydrophila): ≥ 160 µM
MIC (Candida albicans): 20 µM (≈ 50.5 µg/mL)
MIC (Edwardsiella tarda): ≥ 160 µM
Structure (SMILES): CC[C@H](C)[C@H](NC(=O)[C@H](CC(C)C)NC(=O)CNC(=O)[C@H](Cc1cnc[nH]1)NC(=O)[C@@H](NC(=O)[C@H](Cc1cnc[nH]1)NC(=O)[C@H](CCCCN)NC(=O)CNC(=O)[C@@H](NC(=O)[C@H](CO)NC(=O)[C@H](Cc1ccccc1)NC(=O)[C@H](CC(C)C)NC(=O)CNC(=O)CNC(=O)[C@@H](NC(=O)[C@@H](NC(=O)[C@H](Cc1cnc[nH]1)NC(=O)[C@H](Cc1cnc[nH]1)NC(=O)[C@@H](NC(=O)[C@@H](N)Cc1ccccc1)[C@@H](C)CC)[C@@H](C)CC)[C@@H](C)CC)C(C)C)[C@@H](C)CC)C(=O)N[C@@H](Cc1cnc[nH]1)C(=O)NCC(=O)N[C@@H](Cc1cnc[nH]1)C(=O)O [FIHHIIGGLFSVGKHIHGLIHGH]

MIC (Bacillus megaterium Bm11): 2 µM (≈ 4.68 µg/mL)
MIC (Escherichia coli ML-35): 4 µM (≈ 9.37 µg/mL)
MIC [23]: 4 µM (≈ 9.37 µg/mL)
MIC [24]: 1 µM (≈ 2.34 µg/mL)
MIC [25]: 4 µM (≈ 9.37 µg/mL)
MIC (Staphylococcus aureus): 4 µM (≈ 9.37 µg/mL)
MIC (Enterococcus faecium): 8 µM (≈ 18.7 µg/mL)
MIC [26]: 8 µM (≈ 18.7 µg/mL)
MIC [27]: 2 µM (≈ 4.68 µg/mL)
MIC [28]: 4 µM (≈ 9.37 µg/mL)
MIC [5]: 2 µM and 4 µM
MIC (Escherichia coli D21): 4 µM (≈ 9.37 µg/mL)
MIC [29]: 4 µM (≈ 9.37 µg/mL)
MIC [30]: 2 µM (≈ 4.68 µg/mL)
MIC (Cryptococcus neoformans): 4 µM (≈ 9.37 µg/mL)
MIC (Candida albicans): 16 µM (≈ 37.5 µg/mL)
MIC [31]: 4 µM and 2.83 µM
MIC [32]: 2 µM (≈ 4.68 µg/mL)
MIC [33]: 4 µM and 2.83 µM
MIC [8]: 2 µM (≈ 4.68 µg/mL)
MIC (Serratia marcescens): 4 µM (≈ 9.37 µg/mL)
MIC [34]: 2 µM (≈ 4.68 µg/mL)
MIC (Streptococcus agalactiae): 1 µM (≈ 2.34 µg/mL)
MIC [12]: 2 µM (≈ 4.68 µg/mL)
Structure (SMILES): CC(C)C[C@H](NC(=O)[C@H](CCCCN)NC(=O)[C@H](CCCCN)NC(=O)[C@H](Cc1ccccc1)NC(=O)[C@H](CC(C)C)NC(=O)[C@H](CCCCN)NC(=O)[C@H](CCCCN)NC(=O)[C@H](Cc1ccccc1)NC(=O)[C@H](CCCCN)NC(=O)[C@H](CCCCN)NC(=O)[C@H](CCCN=C(N)N)NC(=O)[C@H](Cc1ccccc1)NC(=O)[C@H](CCCN=C(N)N)NC(=O)[C@H](CCCCN)NC(=O)[C@H](Cc1ccccc1)NC(=O)[C@H](CCCN=C(N)N)NC(=O)CN)C(=O)N[C@@H](CO)C(N)=O [GRFKRFRKKFKKLFKKLS]

MIC (Escherichia coli W160-37): 22 µM (≈ 48.9 µg/mL)
Structure (SMILES): CC[C@H](C)[C@H](NC(=O)[C@H](CC(N)=O)NC(=O)[C@@H](NC(=O)[C@@H](NC(=O)[C@H](CCCCN)NC(=O)[C@H](CCC(N)=O)NC(=O)[C@H](CCC(N)=O)NC(=O)[C@H](C)NC(=O)[C@H](CCC(=O)O)NC(=O)[C@H](CCC(=O)O)NC(=O)[C@@H](NC(=O)[C@H](CC(=O)O)NC(=O)[C@H](CCCCN)NC(=O)[C@H](CC(C)C)NC(C)=O)C(C)C)[C@@H](C)CC)[C@@H](C)CC)C(=O)N[C@H](C(=O)N[C@@H](CCCN=C(N)N)C(=O)N[C@@H](CCCN=C(N)N)C(=O)N[C@@H](CC(C)C)C(N)=O)[C@@H](C)CC [LKDVEEAQQKIINIIRRL]
